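Test compounds were applied to cells in 96-well plates for 48 hours at 5 doses. TGI is the concentration that stops growth completely.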
Experiments:
Test in all cases: NCI anticancer screen, dose series, 48 h
786-0 renal = system: 786-0 renal
A498 renal = system: A498 renal
A549 NSCLC = system: A549 NSCLC
ACHN renal = system: ACHN renal
BT-549 breast = system: BT-549 breast
CAKI-1 renal = system: CAKI-1 renal
COLO 205 colon = system: COLO 205 colon
DU-145 prostate = system: DU-145 prostate
EKVX NSCLC = system: EKVX NSCLC
HCT-116 colon = system: HCT-116 colon
HCT-15 colon = system: HCT-15 colon
HL-60(TB) leukemia = system: HL-60(TB) leukemia
HOP-62 NSCLC = system: HOP-62 NSCLC
HOP-92 NSCLC = system: HOP-92 NSCLC
HS 578T breast = system: HS 578T breast
HT29 colon = system: HT29 colon
IGROV1 ovarian = system: IGROV1 ovarian
K-562 leukemia = system: K-562 leukemia
KM12 colon = system: KM12 colon
LOX IMVI melanoma = system: LOX IMVI melanoma
M14 melanoma = system: M14 melanoma
MALME-3M melanoma = system: MALME-3M melanoma
MCF7 breast = system: MCF7 breast
MDA-MB-231 breast = system: MDA-MB-231 breast
MDA-MB-435 = system: MDA-MB-435
MDA-N = system: MDA-N
MOLT-4 leukemia = system: MOLT-4 leukemia
NCI-H226 lung = system: NCI-H226 lung
NCI-H23 lung = system: NCI-H23 lung
NCI-H460 lung = system: NCI-H460 lung
NCI-H522 lung = system: NCI-H522 lung
NCI/ADR-RES ovarian = system: NCI/ADR-RES ovarian
OVCAR-3 ovarian = system: OVCAR-3 ovarian
OVCAR-4 ovarian = system: OVCAR-4 ovarian
OVCAR-5 ovarian = system: OVCAR-5 ovarian
OVCAR-8 ovarian = system: OVCAR-8 ovarian
PC-3 prostate = system: PC-3 prostate
RPMI-8226 leukemia = system: RPMI-8226 leukemia
RXF 393 renal = system: RXF 393 renal
SF-268 CNS = system: SF-268 CNS
SF-295 CNS = system: SF-295 CNS
SF-539 CNS = system: SF-539 CNS
SK-MEL-28 melanoma = system: SK-MEL-28 melanoma
SK-MEL-5 melanoma = system: SK-MEL-5 melanoma
SK-OV-3 ovarian = system: SK-OV-3 ovarian
SN12C renal = system: SN12C renal
SNB-19 CNS = system: SNB-19 CNS
SNB-75 CNS = system: SNB-75 CNS
SR leukemia = system: SR leukemia
SW-620 colon = system: SW-620 colon
T-47D breast = system: T-47D breast
TK-10 renal = system: TK-10 renal
U251 CNS = system: U251 CNS
UACC-62 melanoma = system: UACC-62 melanoma
UO-31 renal = system: UO-31 renal

Measured: TGI

CC(C)CC(NC=O)C(=O)NC(Cc1ccccc1)NC(=O)CNC(=O)C(C)NC(=O)OC(C)(C)C (stereo not given)
> 100 µM: all assays above
